Test results from ChEMBL document CHEMBL1909046, “DrugMatrix in vitro pharmacology data”.

Columns and labels:
[1] = DRUGMATRIX: Glutamate, Kainate radioligand binding (ligand: [3H] Kainic acid); assay type: cell membranes, Rattus norvegicus, Wistar, Brain, Membrane; conditions: Not Active = under 50% inhibition at 10 µM
[2] = target: T1, Alpha-2C adrenergic receptor (Homo sapiens, UniProt P18825); assay: DRUGMATRIX: Adrenergic Alpha-2C radioligand binding (ligand: [3H] MK-912); assay type: cell membranes, Sf9, Membrane
T1 sequence (P18825 whole entry): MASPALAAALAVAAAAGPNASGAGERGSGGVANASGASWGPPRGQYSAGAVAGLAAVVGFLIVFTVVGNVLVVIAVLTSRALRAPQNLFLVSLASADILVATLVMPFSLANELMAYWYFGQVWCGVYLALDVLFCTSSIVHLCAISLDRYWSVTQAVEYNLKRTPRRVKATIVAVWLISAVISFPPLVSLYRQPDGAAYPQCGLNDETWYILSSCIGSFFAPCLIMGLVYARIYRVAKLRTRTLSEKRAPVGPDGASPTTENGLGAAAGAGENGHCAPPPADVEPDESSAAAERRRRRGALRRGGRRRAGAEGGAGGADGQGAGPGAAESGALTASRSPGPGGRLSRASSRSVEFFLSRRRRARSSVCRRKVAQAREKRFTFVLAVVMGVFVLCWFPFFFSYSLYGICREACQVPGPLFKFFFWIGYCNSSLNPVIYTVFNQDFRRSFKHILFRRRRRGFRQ

D(1A) dopamine receptor = D(1A) dopamine receptor (Homo sapiens, UniProt P21728); assay: DRUGMATRIX: Dopamine D1 radioligand binding (ligand: [3H] SCH-23390); assay type: cell membranes, CHO, Membrane; conditions: cho; Not Active = under 50% inhibition at 10 µM
D(1A) dopamine receptor, sequence (P21728 whole entry): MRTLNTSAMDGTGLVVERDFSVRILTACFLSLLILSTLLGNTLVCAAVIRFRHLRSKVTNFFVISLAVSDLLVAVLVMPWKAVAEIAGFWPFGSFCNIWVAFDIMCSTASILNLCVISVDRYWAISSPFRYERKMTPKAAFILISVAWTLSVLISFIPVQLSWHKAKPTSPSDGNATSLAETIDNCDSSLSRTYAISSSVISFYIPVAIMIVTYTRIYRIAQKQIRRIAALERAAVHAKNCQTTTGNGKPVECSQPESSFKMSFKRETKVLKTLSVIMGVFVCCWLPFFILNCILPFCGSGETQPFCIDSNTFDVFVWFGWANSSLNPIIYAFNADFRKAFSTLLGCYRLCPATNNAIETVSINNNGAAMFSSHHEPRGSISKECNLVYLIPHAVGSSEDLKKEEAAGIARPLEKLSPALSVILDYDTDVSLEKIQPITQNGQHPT

[3] = target: Beta-2 adrenergic receptor (Homo sapiens, UniProt P07550); assay: DRUGMATRIX: Adrenergic beta2 radioligand binding (ligand: [3H] CGP-12177); assay type: cell membranes, CHO, Membrane; conditions: Not Active = under 50% inhibition at 10 µM
Beta-2 adrenergic receptor, sequence (P07550 whole entry): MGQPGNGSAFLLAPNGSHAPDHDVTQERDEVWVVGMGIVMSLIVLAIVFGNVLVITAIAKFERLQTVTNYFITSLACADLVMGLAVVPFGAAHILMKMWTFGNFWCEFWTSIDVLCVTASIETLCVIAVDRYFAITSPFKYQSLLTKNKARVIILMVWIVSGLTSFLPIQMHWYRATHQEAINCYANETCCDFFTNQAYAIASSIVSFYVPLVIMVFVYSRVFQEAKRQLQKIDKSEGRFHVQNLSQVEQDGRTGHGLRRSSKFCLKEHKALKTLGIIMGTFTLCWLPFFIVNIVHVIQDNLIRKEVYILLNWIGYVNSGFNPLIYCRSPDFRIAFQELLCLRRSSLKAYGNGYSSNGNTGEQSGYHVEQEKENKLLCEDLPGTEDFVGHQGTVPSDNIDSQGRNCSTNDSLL

[4] = target: T2, Neuropeptide Y receptor type 2 (Homo sapiens, UniProt P49146); assay type: cell membranes, KAN-TS, Membrane; conditions: kan-ts; also: in other assays of this panel Not Active means under 50% inhibition at 10 µM
T2 sequence (P49146 whole entry): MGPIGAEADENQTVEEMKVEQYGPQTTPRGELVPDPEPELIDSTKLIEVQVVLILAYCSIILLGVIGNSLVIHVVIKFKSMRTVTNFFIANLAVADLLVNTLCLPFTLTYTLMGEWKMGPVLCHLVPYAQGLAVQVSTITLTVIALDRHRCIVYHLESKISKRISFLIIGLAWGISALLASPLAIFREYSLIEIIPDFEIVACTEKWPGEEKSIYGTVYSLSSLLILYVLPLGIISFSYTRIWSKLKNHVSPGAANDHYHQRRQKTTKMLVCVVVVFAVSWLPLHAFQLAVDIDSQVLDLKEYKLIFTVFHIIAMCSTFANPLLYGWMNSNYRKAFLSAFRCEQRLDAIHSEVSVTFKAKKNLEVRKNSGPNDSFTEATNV

Progesterone receptor = target: T3, Progesterone receptor (Bos taurus, UniProt Q690N0); assay: DRUGMATRIX: Progesterone radioligand binding (ligand: [3H] R-5020); assay type: tissue-based, Uterus; conditions: Not Active = under 50% inhibition at 10 µM
T3 sequence (Q690N0 whole entry): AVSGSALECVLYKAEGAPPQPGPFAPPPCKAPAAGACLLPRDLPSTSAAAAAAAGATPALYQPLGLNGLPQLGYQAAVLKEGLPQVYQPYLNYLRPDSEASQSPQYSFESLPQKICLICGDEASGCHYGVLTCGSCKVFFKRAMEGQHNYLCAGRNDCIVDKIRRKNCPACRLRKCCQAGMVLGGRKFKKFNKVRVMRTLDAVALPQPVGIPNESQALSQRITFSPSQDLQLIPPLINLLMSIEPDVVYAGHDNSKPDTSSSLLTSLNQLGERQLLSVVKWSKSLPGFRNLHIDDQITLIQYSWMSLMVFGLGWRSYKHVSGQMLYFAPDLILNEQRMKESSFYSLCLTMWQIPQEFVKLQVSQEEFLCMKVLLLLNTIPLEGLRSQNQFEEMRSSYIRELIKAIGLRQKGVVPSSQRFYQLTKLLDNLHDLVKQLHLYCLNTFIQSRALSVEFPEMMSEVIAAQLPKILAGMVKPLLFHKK

SMILES | IC50 [1] | Ki [1] | IC50 ([2]; sf9) | IC50 (D(1A) dopamine receptor) | IC50 ([3]; cho) | IC50 [4] | IC50 (Progesterone receptor) | IC50 ([2]; read-out: IC50) [nM] | Ki ([2]; read-out: Ki) [nM] | IC50 ([3]; read-out: IC50) [nM] | Ki ([3]; read-out: Ki) [nM] | IC50 (Progesterone receptor; read-out: IC50) [nM] | Ki (Progesterone receptor; read-out: Ki) [nM]
O=C(c1ccccc1C(F)(F)F)N1CCC(Cc2ccccc2)CC1 | Not Active | Not Active | Not Active | Not Active | Not Active | Not Active | Not Active | – | – | – | – | – | –
O=C/C=C/c1ccccc1 | Not Active | Not Active | Not Active | Not Active | Not Active | Not Active | Not Active | – | – | – | – | – | –
Nc1ccc2c3c(cccc13)C(=O)NC2=O | Not Active | Not Active | Not Active | Not Active | Not Active | Not Active | Not Active | – | – | – | – | – | –
COc1ccc(C(=O)N2CCCC2=O)cc1 | Not Active | Not Active | Not Active | Not Active | Not Active | Not Active | Not Active | – | – | – | – | – | –
O=c1cnn([C@@H]2O[C@H](CO)[C@@H](O)[C@H]2O)c(=O)[nH]1 [6-AZAURIDINE] | Not Active | Not Active | Not Active | Not Active | Not Active | Not Active | Not Active | – | – | – | – | – | –
CC[C@H](C)[C@H]1O[C@]2(C=C[C@@H]1C)C[C@@H]1C[C@@H](C/C=C(\C)[C@@H](O[C@H]3C[C@H](OC)[C@@H](O[C@H]4C[C@H](OC)[C@@H](O)[C@H](C)O4)[C@H](C)O3)[C@@H](C)/C=C/C=C3\CO[C@@H]4[C@H](O)C(C)=C[C@@H](C(=O)O1)[C@]34O)O2.CO[C@H]1C[C@H](O[C@H]2[C@H](C)O[C@@H](O[C@@H]3/C(C)=C/C[C@@H]4C[C@@H](C[C@]5(C=C[C@H](C)[C@@H](C(C)C)O5)O4)OC(=O)[C@@H]4C=C(C)[C@@H](O)[C@H]5OC/C(=C\C=C\[C@@H]3C)[C@]54O)C[C@@H]2OC)O[C@@H](C)[C@@H]1O [ABAMECTIN] | Not Active | Not Active | Not Active | – | Not Active | Not Active | Not Active | – | – | – | – | – | –
NCCCC(O)(P(=O)(O)O)P(=O)(O)O [ALENDRONIC ACID] | Not Active | Not Active | Not Active | Not Active | Not Active | Not Active | Not Active | – | – | – | – | – | –
Cc1nnc2n1-c1ccc(Cl)cc1C(c1ccccc1)=NC2 [ALPRAZOLAM] | Not Active | Not Active | Not Active | Not Active | Not Active | Not Active | Not Active | – | – | – | – | – | –
Cn1c(=O)c2[nH]cnc2n(C)c1=O.Cn1c(=O)c2[nH]cnc2n(C)c1=O.NCCN [AMINOPHYLLINE] | Not Active | Not Active | Not Active | Not Active | Not Active | Not Active | Not Active | – | – | – | – | – | –
CCC1(CCC(C)C)C(=O)NC(=O)NC1=O [AMOBARBITAL] | Not Active | Not Active | Not Active | Not Active | Not Active | Not Active | Not Active | – | – | – | – | – | –
CC1(C)S[C@@H]2[C@H](NC(=O)[C@H](N)c3ccccc3)C(=O)N2[C@H]1C(=O)O [AMPICILLIN] | Not Active | Not Active | Not Active | Not Active | Not Active | Not Active | Not Active | – | – | – | – | – | –
COc1ccc(C2C(=O)c3ccccc3C2=O)cc1 [ANISINDIONE] | Not Active | Not Active | Not Active | Not Active | Not Active | Not Active | Not Active | – | – | – | – | – | –
O=C1O[C@H]([C@@H](O)CO)C(O)=C1O [ASCORBIC ACID] | Not Active | Not Active | Not Active | Not Active | Not Active | Not Active | Not Active | – | – | – | – | – | –
CN1[C@@H]2CC[C@H]1C[C@@H](OC(=O)C(CO)c1ccccc1)C2 (stereo partly specified) [ATROPINE] | Not Active | Not Active | Not Active | Not Active | Not Active | Not Active | Not Active | – | – | – | – | – | –
CC(C(=O)O)c1ccc2oc(-c3ccc(Cl)cc3)nc2c1 (stereo unspecified) [BENOXAPROFEN] | Not Active | Not Active | Not Active | Not Active | Not Active | Not Active | Not Active | – | – | – | – | – | –
COc1ccc2cc3[n+](cc2c1OC)CCc1cc2c(cc1-3)OCO2.[Cl-] [BERBERINE CHLORIDE] | Not Active | Not Active | – | – | Not Active | Not Active | Not Active | 2840 | 412 | – | – | – | –
O=C(O)CCNC(=O)c1ccccc1 [BETAMIPRON] | Not Active | Not Active | Not Active | Not Active | Not Active | Not Active | Not Active | – | – | – | – | – | –
CC(=O)Oc1ccc(C(c2ccc(OC(C)=O)cc2)c2ccccn2)cc1 [BISACODYL] | Not Active | Not Active | Not Active | Not Active | Not Active | Not Active | Not Active | – | – | – | – | – | –
Cc1cc2c(OCC(CNC(C)(C)C)OC(=O)c3ccccc3)cccc2[nH]1 (stereo unspecified) [BOPINDOLOL] | Not Active | Not Active | Not Active | Not Active | – | Not Active | Not Active | – | – | 20 | 14 | – | –
Brc1c(NC2=NCCN2)ccc2nccnc12 [BRIMONIDINE] | Not Active | Not Active | Not Active | Not Active | Not Active | Not Active | Not Active | – | – | – | – | – | –
CN(C)[C@@H]1C(O)=C(C(N)=O)C(=O)[C@@]2(O)C(O)=C3C(=O)c4c(O)ccc(Cl)c4[C@@](C)(O)[C@H]3C[C@@H]12 [CHLORTETRACYCLINE] | Not Active | Not Active | Not Active | Not Active | Not Active | Not Active | Not Active | – | – | – | – | – | –
CN/C(=N\CCSCc1nc[nH]c1C)NC#N [CIMETIDINE] | Not Active | Not Active | Not Active | Not Active | Not Active | Not Active | Not Active | – | – | – | – | – | –
COc1cc(N)c(Cl)cc1C(=O)NC1CCN(CCCOc2ccc(F)cc2)CC1OC (stereo unspecified) [CISAPRIDE] | Not Active | Not Active | – | Not Active | Not Active | Not Active | Not Active | – | – | – | – | – | –
CCC(=O)O[C@]1(C(=O)CCl)[C@@H](C)C[C@H]2[C@@H]3CCC4=CC(=O)C=C[C@]4(C)[C@@]3(F)[C@@H](O)C[C@@]21C [CLOBETASOL PROPIONATE] | Not Active | Not Active | Not Active | Not Active | Not Active | Not Active | – | – | – | – | – | 12 | 1.52
N=C(N)NC(=O)Cc1c(Cl)cccc1Cl [GUANFACINE] | Not Active | Not Active | – | Not Active | Not Active | Not Active | Not Active | – | – | – | – | – | –
CC(C)NCC(O)COc1cccc2[nH]ccc12 (stereo unspecified) [PINDOLOL] | Not Active | Not Active | Not Active | Not Active | – | Not Active | – | – | – | – | – | – | –
COc1cc2nc(N3CCN(C(=O)c4ccco4)CC3)nc(N)c2cc1OC [PRAZOSIN] | Not Active | Not Active | – | Not Active | Not Active | Not Active | Not Active | – | – | – | – | – | –
CCCNCC(O)COc1ccccc1C(=O)CCc1ccccc1 (stereo unspecified) [PROPAFENONE] | Not Active | Not Active | Not Active | Not Active | – | Not Active | Not Active | – | – | – | – | – | –
